Literature values, collected in patent US8664239B2, “Tacrolimus for improved treatment of transplant patients” (Veloxis Pharmaceuticals A/S, priority 2007, dated 2014).
Where two headings read alike, the source gives them in different places.

Assays:
[1] = not given; remark: listed apart in the source

solubility (in chloroform): very soluble
solubility (in ethanol): freely soluble
solubility (in methanol): very soluble
solubility (in water): practically insoluble
bioavailability ([1]; after oral administration): ≤ 20%
mean time-to-peak concentration (tmax) ([1]; oral administration, healthy subjects or kidney or liver transplanted patients): 1 to 2 h
SMILES: C=CC[C@@H]1/C=C(\C)C[C@H](C)C[C@H](OC)[C@H]2O[C@@](O)(C(=O)C(=O)N3CCCC[C@H]3C(=O)O[C@H](/C(C)=C/[C@@H]3CC[C@@H](O)[C@H](OC)C3)[C@H](C)[C@@H](O)CC1=O)[C@H](C)C[C@@H]2OC [Tacrolimus]
